In this assay the test system is M. tuberculosis H37Rv growth inhibition. Nature of the assay: M. tuberculosis H37Rv growth inhibitors, H37Rv strain (AID 1626). The conditions noted are these: for IC90: measured here: IC90 against H37Rv; for CC50: measured here: Vero cell cytotoxicity.

For the compound `CCCCOC(=O)CSc1nc(N)c(C#N)c(-c2ccc(OC)cc2)c1C#N`, the IC50 – broadly, the concentration needed to halve the response being measured – was 1.14 µM and the IC90 (commonly the point of the concentration-response curve where the effect stands at 90%) was 2.39 µM.
In the case of `Cc1ccc(NC(=O)c2nc[nH]c2C(=O)N[C@@H](C)c2ccccc2)cc1`, the half-inhibitory concentration (IC50) is 2.16 µM; the IC90 was found to be 6.42 µM; the CC50 (as a rule, the concentration giving 50% cytotoxicity) was > 40 µM.
For the compound `COc1ccc(OCCCC(=O)Nc2cccc(SC)c2)cc1`, the IC90 was > 100 µM.
In the case of `N#C/C(=C\c1ccccn1)c1nc2ccccc2s1`, the IC50 is 14.9 µM, the IC90 was > 100 µM and the CC50 was > 40 µM.
On to `CCOc1ccc(N/C(C)=C/C(=O)c2ccc(C)o2)cc1`, for which the IC50 was 13.3 µM and the IC90 was > 100 µM.
Take `CC(=O)N1CCN(c2cc3c(cc2F)c(=O)c(C(=O)O)cn3C2CC2)CC1`: the IC50 is 0.949 µM and the IC90 worked out at 1.56 µM.
Take `O=C(Nc1nc(-c2ccccn2)cs1)c1cc2ccccc2o1`: the IC50 is 2.62 µM, the IC90 turned out to be 42.6 µM and the CC50 was > 40 µM.
Taken in the same sequence, the figures for `O=C(CCl)NC1CCCc2ccccc21` (stereo not given) were 20.6 µM, > 100 µM and 32.5 µM.
As for `CCOc1ccc2nc(NC(=O)CSC3=NCCS3)sc2c1`, the IC90 is > 100 µM.
Regarding `O=C(/C=C/c1ccccc1)c1c(O)n(CCc2ccccc2)c(=O)[nH]c1=O`, the IC50 is 9.75 µM, the IC90 worked out at 11.6 µM and the CC50 is 37.1 µM.
As to `Nc1c(C(=O)NCc2ccccc2)c2nc3ccccc3nc2n1CCCN1CCOCC1`, the IC50 is 12.7 µM, the IC90 was found to be 17.1 µM and the CC50 is > 40 µM.
Consider `O=C(CSc1nc2ccccc2o1)Nc1nc(-c2ccccc2)c(-c2ccccc2)s1`, for which the half-inhibitory concentration (IC50) was 10.1 µM, the IC90 is > 100 µM and the CC50 was > 40 µM.
Taken in the same sequence, the figures for `Cc1ccc2nc(Cl)c(/C=C/C(=O)c3ccco3)cc2c1` were 2.26 µM, 4.01 µM and 25 µM.
Turning to `O=C(Nc1nc2ccccc2n1CCN1CCOCC1)c1ccc(Cl)cc1`, the IC50 is 26.5 µM, the IC90 was > 100 µM and the CC50 is > 40 µM.
Taken in the same sequence, the figures for `O=C(Oc1ccc(Cl)cc1)c1ccc(COC(=O)c2cnccn2)cc1` were 6.54 µM, 9.41 µM and > 40 µM.
On the same counts, the results for `Cc1nc(NC(=O)c2ccccc2)sc1Cc1ccc2c(c1)OCO2` are 60.5 µM, > 100 µM and > 40 µM.
As to `Nc1ccc2oc(-c3cc(Br)ccc3Cl)nc2c1`, the IC50 is 18.6 µM and the IC90 was > 100 µM.
On the same counts, the results for `O=C(/C=C/c1cccc([N+](=O)[O-])c1)c1cccs1` are 11.1 µM and 12.8 µM.
On to `Cc1cc([N+](=O)[O-])ccc1NC(=O)c1ccc(NC(=O)C(C)C)cc1`, for which the half-inhibitory concentration (IC50) is 12.3 µM and the IC90 is > 100 µM.
On the same counts, the results for `CCOc1ccc(N=Cc2c(O)n(-c3cccc(C)n3)c(=O)c3ccccc23)cc1` are 14.7 µM and > 100 µM.
On the same counts, the results for `CCCSc1ccc(C(=O)Nc2ccc(Cl)cc2)cn1` are 27.9 µM and > 100 µM.
`O=C(Nc1nnc(-c2ccco2)o1)c1cccc2ccccc12`: the concentration for half-maximal inhibition (IC50) was 2.34 µM, the IC90 is 6.25 µM and the CC50 was 39.4 µM.
On the same counts, the results for `Cc1nn(-c2ccccc2)c2c1C(c1ccc([N+](=O)[O-])cc1)N1C(=N2)C(=O)Nc2ccccc21` (stereo not given) are 19.1 µM, > 100 µM and > 40 µM.
Take `O=C(/C=C/c1ccco1)c1ccc(NC(=O)C23CC4CC(CC(C4)C2)C3)cc1`: the IC50 is < 0.195 µM and the 90% effect concentration (IC90) was > 100 µM.
In the case of `Cc1ccc(NS(=O)(=O)c2cc(NC(=O)c3ccc4c(c3)NC(=O)CS4)ccc2C)c(C)c1`, the IC50 is 11.1 µM, the IC90 was > 100 µM and the CC50 is > 40 µM.
On to `Cc1nc(Nc2ccc(Cl)c(Cl)c2)sc1C(=O)Nc1ccccc1`, for which the IC50 is 14.4 µM, the IC90 was 38 µM and the CC50 was 20.9 µM.
For `COC(=O)c1cc(/C=C/c2ccccc2)on1`, the IC50 is 1.33 µM and the IC90 is > 100 µM.
For the compound `O=C(Nc1nnc(-c2ccncc2)o1)c1ccc(Br)s1`, the IC50 was 15 µM, the IC90 stood at 29.7 µM and the CC50 worked out at 20.6 µM.
On the same counts, the results for `CCOc1ccc(NC2=C(OC)C(=O)c3ccccc3C2=O)cc1` are 28.3 µM, 44.1 µM and > 40 µM.
On the same counts, the results for `Cc1cccc(CN2C(=O)[C@@H]3Cc4c([nH]c5ccccc45)C(C)(C)N3C2=O)c1` are 8.69 µM, 14.3 µM and > 40 µM.
With `CCC(C)c1ccc(NC(=O)COC(=O)C2=COCCO2)cc1` (stereo not given), the IC50 was 4.54 µM and the concentration for an effect of 90% (IC90) is > 100 µM.
With `CCCCn1c(O)c(C(C)=Nc2ccc(OCC)cc2)c(=O)[nH]c1=O`, the IC50 is 5.45 µM, the 90% effect concentration (IC90) was > 100 µM and the CC50 was > 40 µM.
Regarding `CCOC(=O)c1ccc(N2CN=C3SCC(=O)N3C2)cc1`, the IC50 is 11.9 µM and the IC90 was > 100 µM.
As to `O=C(Nc1nnc(-c2ccco2)o1)c1ccc([N+](=O)[O-])s1`, the IC50 was 6.03 µM, the 90% effect concentration (IC90) came to 8.57 µM and the CC50 stood at 16.6 µM.
In the case of `CCCc1nn(C)c(C(=O)Nc2ccc(CC)cc2)c1Cl`, the IC90 is > 100 µM.
In the case of `COc1ccccc1NC(=O)CN1CCN(C2c3ccccc3-c3ccccc32)CC1`, the IC90 is > 100 µM and the 50% cytotoxic concentration (CC50) was > 40 µM.
Turning to `CCCCCc1cc(=O)oc2c(C(CCN3CCCCC3)c3cc(OC)c(OC)c(OC)c3)c(OC)cc(OC)c12` (stereo not given), the IC50 is 4.18 µM, the concentration for an effect of 90% (IC90) was determined as 5.62 µM and the CC50 was 13.7 µM.
On the same counts, the results for `CCc1ccc(-c2nn(-c3ccccc3)cc2CSC(=N)N)cc1` are 6.73 µM, 10.7 µM and 14 µM.
On the same counts, the results for `O=C(CNC(=O)/C(=C\c1ccc(Br)cc1)NC(=O)c1ccccc1)OCc1ccccc1` are 1.92 µM, 3.33 µM and 13 µM.
`Cc1ccc(OCc2nnc(SCc3cc(=O)[nH]c4ccccc34)n2-c2ccccc2)cc1`: the IC50 was 27.8 µM, the IC90 is > 100 µM and the CC50 was > 40 µM.
With `Cc1c(C(=O)Oc2cccc3cccnc23)cccc1[N+](=O)[O-]`, the 50% inhibitory concentration (IC50) was 6.52 µM, the IC90 came out at 7.5 µM and the half-maximal cytotoxic concentration (CC50) is > 40 µM.
Take `CSc1nc2ccc(NC(=O)C3CC(=O)N(Cc4ccccc4)C3)cc2s1` (stereo not given): the IC50 was 5.17 µM and the 90% effect concentration (IC90) is 7.75 µM.
As for `CCCCNC(=O)COC(=O)c1cc(F)c(F)cc1Cl`, the half-maximal inhibitory concentration (IC50) is 6.16 µM and the IC90 was > 100 µM.
Taken in the same sequence, the figures for `O=C(NC1CCCCCCC1)c1ccccc1-c1ccccc1` were 57.1 µM and > 100 µM.
Turning to `COc1ccc(NC(=O)CSC2=NCCN2)cc1`, the IC90 was > 100 µM.
As to `N#CC(c1ccc(Cl)cc1)c1ccc2c(C(F)(F)F)cc(C(F)(F)F)nc2n1` (stereo not given), the IC50 was 0.571 µM, the IC90 came to 0.691 µM and the 50% cytotoxic concentration (CC50) was 0.904 µM.
As for `CCCc1nc2sc3ccccc3c(=O)c2c(=O)n1Cc1ccc(OC)cc1`, the IC90 was > 100 µM and the CC50 is > 40 µM.
Consider `O=C(CSc1nc2ccc(Cl)cc2[nH]1)Nc1ccc2c(c1)CCC2`, for which the IC50 was 29.8 µM, the IC90 is > 100 µM and the CC50 was > 40 µM.
Taken in the same sequence, the figures for `Cc1ccc(-n2nnnc2Sc2nc([N+](=O)[O-])nn2C)cc1C` were 7.23 µM, 13.2 µM and 37.6 µM.
Consider `CCOC(=O)c1ccc(N/C=C2\CCCCC2=O)cc1`, for which the IC90 was > 100 µM.
Take `COc1ccc(C(=O)CSc2nc(-c3ccccn3)nc(C)c2Cl)cc1`: the IC50 is 6.11 µM, the IC90 was found to be 6.84 µM and the CC50 is > 40 µM.
Take `COc1ccc(NC2=CC(c3ccc(OC)cc3)N(c3ccc(OC)cc3)C2=O)cc1` (stereo not given): the IC90 was > 100 µM and the CC50 was > 40 µM.
On to `Cc1cc(N2CCC(C)CC2)nc(-n2nc(C)cc2C)n1`, for which the IC50 was 3.18 µM, the 90% effect concentration (IC90) was > 100 µM and the cytotoxic concentration (CC50) amounted to 16.5 µM.
As for `CCOC(=O)COc1ccc2c(=O)cc(-c3ccccc3)oc2c1`, the IC50 was < 0.195 µM and the IC90 came out at 0.963 µM.
Taken in the same sequence, the figures for `O=C(CCCC(=O)OCC(=O)c1cccs1)Nc1ccc(Oc2ccccc2)cc1` were 17.4 µM and > 100 µM.
Taken in the same sequence, the figures for `c1ccc(C2=Nc3ccccc3OC2)cc1` were 4.73 µM and 8.31 µM.
For `O=[N+]([O-])c1cc(CN2CCN(c3cccc(C(F)(F)F)c3)CC2)c2cccnc2c1O`, the concentration for half-maximal inhibition (IC50) is 13.2 µM, the IC90 is > 100 µM and the CC50 is 1.49 µM.
On to `CSc1nsc(SCC(=O)Nc2ccc(OC(C)=O)cc2)n1`, for which the IC50 was 2.56 µM and the 90% effect concentration (IC90) is 3.79 µM.
With `COc1ccc(NC(=O)N2CCN(c3nc(-c4cccc(OC)c4)cs3)CC2)cc1`, the IC50 was 9.47 µM, the IC90 is > 100 µM and the CC50 is > 40 µM.
Turning to `Oc1cnn(-c2ccccc2)c1`, the IC90 is > 100 µM.
As to `C=CCOc1ccc(C=Nc2ccc(OC)cc2)c(O)c1`, the IC90 was > 100 µM.
`O=C(COC(=O)/C=C/c1cccs1)Nc1ccc2ccccc2c1`: the IC50 is 90.8 µM and the IC90 is > 100 µM.
For `Clc1nc(-c2ccccn2)nc2scc(-c3ccccc3)c12`, the IC50 is 9.23 µM, the IC90 worked out at 15.5 µM and the CC50 was 19.9 µM.
As for `O=C(COC(=O)c1cccs1)c1ccc2c(c1)OCCO2`, the IC50 was 8.66 µM and the IC90 stood at 19.2 µM.
Turning to `O=C(C=C=Nc1ccccc1)C(=O)N=C=Cc1ccccc1`, the IC50 is 16.4 µM, the IC90 was 25 µM and the CC50 was 22.8 µM.
For `c1ccc(-c2nc(NCCCn3ccnc3)c3oc4ccccc4c3n2)cc1`, the IC50 was 2.81 µM, the IC90 came out at 3.16 µM and the CC50 was > 40 µM.
